The source of these data is PubChem BioAssay AID1963966 (Molecular Pharmacology Branch, DTP, NCI, 2024).

Structures are written as SMILES.

The subject of this test is 935938-334-R-J1-PDC spheroids with HUVEC/MSC, viability. Nature of the test: Anticancer human tumor 935938-334-R-J1-PDC patient-derived small intestine adenocarcinoma cell line growth inhibition [PI3K]. Conditions: for viability, T/C: stronger effect = lower value. The procedure, abridged:
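Combination activity was assessed by viability in multicellular tumor spheroids carrying HUVEC and MSC components. Agents were tested with PI3K inhibitors from a Cmax-based top dose (or 10 microM) downward in half-log increments.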
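Further: compound exposure lasted seven days before viability was read.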
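Wherever viability, T/C is given: percent of vehicle DMSO treated spheroid viability so 100% = untreated.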

`Cn1cnc2c(F)c(Nc3ccc(Br)cc3Cl)c(C(=O)NOCCO)cc21` + Cc1nc(NC(=O)N2CCCC2C(N)=O)sc1-c1ccnc(C(C)(C)C(F)(F)F)c1: the IC50 (usually the concentration that gives 50% inhibition) (curve of first compound, second compound 0.0316 µM) stood at 37 nM; the half-inhibitory concentration (IC50) (curve of first compound, second compound 0.1 µM) was 29.7 nM; the IC50 (curve of first compound, second compound 0.316 µM) turned out to be 29 nM; the concentration for half-maximal inhibition (IC50) (curve of first compound, second compound 1 µM) came to 11.6 nM; the 50% inhibitory concentration (IC50) (curve of first compound, second compound 3.16 µM) was less than 9.49 nM; the IC50 (curve of first compound, second compound 10 µM) is less than 9.49 nM. Besides, the viability, T/C (usually the ratio of treated to control) (second compound 0.0316 µM, first compound 0.00949 µM) was 62%; the viability, T/C (second compound 0.0316 µM, first compound 0.03 µM) is 54.8%; the viability, T/C (second compound 0.0316 µM, first compound 0.0949 µM) is 32.8%; the viability, T/C (second compound 0.0316 µM, first compound 0.3 µM) is 31.1%; the viability, T/C (second compound 0.0316 µM, first compound 0.949 µM) is 20.4%; the viability, T/C (second compound 0.0316 µM, first compound 3 µM) is 22.9%. The viability, T/C (second compound 0.1 µM, first compound 0.00949 µM) is 73.7%; the viability, T/C (second compound 0.1 µM, first compound 0.03 µM) was 44.7%; the viability, T/C (second compound 0.1 µM, first compound 0.0949 µM) was 41.4%; the viability, T/C (second compound 0.1 µM, first compound 0.3 µM) was 25.8%; the viability, T/C (second compound 0.1 µM, first compound 0.949 µM) was 23.6%; the viability, T/C (second compound 0.1 µM, first compound 3 µM) was 17.2%. Further, the viability, T/C by setting is: (second compound 0.316 µM, first compound 0.00949 µM) 62.9%; (second compound 0.316 µM, first compound 0.03 µM) 48.5%; (second compound 0.316 µM, first compound 0.0949 µM) 36.9%; (second compound 0.316 µM, first compound 0.3 µM) 23%; (second compound 0.316 µM, first compound 0.949 µM) 18.6%; (second compound 0.316 µM, first compound 3 µM) 17.3%. Moreover, the viability, T/C was 52.9% (second compound 1 µM, first compound 0.00949 µM); 37% (second compound 1 µM, first compound 0.03 µM); 26.4% (second compound 1 µM, first compound 0.0949 µM); 19.4% (second compound 1 µM, first compound 0.3 µM); 14.2% (second compound 1 µM, first compound 0.949 µM); 12.6% (second compound 1 µM, first compound 3 µM). The viability, T/C is, setting by setting: (second compound 3.16 µM, first compound 0.00949 µM) 30.8%; (second compound 3.16 µM, first compound 0.03 µM) 39.6%; (second compound 3.16 µM, first compound 0.0949 µM) 19.6%; (second compound 3.16 µM, first compound 0.3 µM) 17.2%; (second compound 3.16 µM, first compound 0.949 µM) 18.5%; (second compound 3.16 µM, first compound 3 µM) 11.1%. Further, the viability, T/C by setting is: (second compound 10 µM, first compound 0.00949 µM) 28.7%; (second compound 10 µM, first compound 0.03 µM) 20.5%; (second compound 10 µM, first compound 0.0949 µM) 17.2%; (second compound 10 µM, first compound 0.3 µM) 14.8%; (second compound 10 µM, first compound 0.949 µM) 14.8%; (second compound 10 µM, first compound 3 µM) 12.1%.

For the molecule `Cn1cnc2c(F)c(Nc3ccc(Br)cc3Cl)c(C(=O)NOCCO)cc21`, the viability, T/C runs as follows: (compound 0.03 µM) 59% [middle of 4 runs]; (compound 0.0949 µM) 48.3% [middle of 4 runs]; (compound 0.3 µM) 33.4% [middle of 4 runs]; (compound 0.949 µM) 27.6% [middle of 4 runs]; (compound 3 µM) 20.4% [middle of 4 runs]. The IC50 (curve of compound) is 55.5 nM [middle of 4 runs].
